Measurements reported in US8809372B2, “Pyridine derivatives” (Endo Pharmaceuticals, Inc., priority 2011, dated 2014).

How the values were obtained:
[1] = biological target: T1, rat CYP17 (rat testicular microsomes) (Rattus norvegicus, UniProt P11715); test: CYP17 inhibition assay in rat testicular microsomes; type: biochemical
T1 construct: Rat testis tissue was collected and disrupted with 30 strokes of a glass homogenizer; from tissue; host or cells: rat testis (microsomes)
T1 sequence (P11715 1-507): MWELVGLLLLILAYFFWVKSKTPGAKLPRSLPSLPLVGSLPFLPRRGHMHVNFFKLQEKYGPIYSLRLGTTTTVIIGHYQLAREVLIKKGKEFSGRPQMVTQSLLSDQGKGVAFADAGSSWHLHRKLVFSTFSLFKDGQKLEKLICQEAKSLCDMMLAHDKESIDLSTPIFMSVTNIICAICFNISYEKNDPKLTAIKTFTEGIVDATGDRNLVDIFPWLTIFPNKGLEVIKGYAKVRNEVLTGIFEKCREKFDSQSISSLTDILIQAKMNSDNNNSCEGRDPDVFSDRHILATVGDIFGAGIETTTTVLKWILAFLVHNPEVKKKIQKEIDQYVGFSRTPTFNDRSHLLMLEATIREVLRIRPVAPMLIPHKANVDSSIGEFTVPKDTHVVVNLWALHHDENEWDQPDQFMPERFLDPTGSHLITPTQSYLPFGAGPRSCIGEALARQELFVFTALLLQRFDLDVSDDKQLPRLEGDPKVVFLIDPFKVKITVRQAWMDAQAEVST
Description: CYP17 Inhibition Assay in Rat Testicular Microsomes (Rat CYP17) or Yeast Microsome Overexpressing Human CYP17
1. NADPH (Sigma): A working stock was prepared by adding 25 μL of 6.5 mM NADPH in each tube. The final concentration of NADPH used in the assay was 325 μM.
2. Potassium Phosphate Buffer: One molar (1M) solutions of K2HPO4 and KH2PO4 were prepared. Eight mL of the 1 M KH2PO4 and 1.98 mL of the 1 M K2HPO4 were combined and the pH was adjusted to 7.4.
3. ^3H3-17α-hydroxypregnenolone (American Radiolabeled Chemicals, Inc., stock 1 μCi/μL): A 1:1 dilution of ^3H3-17α-hydroxypregnenolone in ethanol was prepared by combining 100 μL ^3H3-17α-hydroxypregnenolone+100 μL ethanol for one complete 96 well plate. For the reaction, 2 μL of the diluted ^3H3-17α-hydroxypregnenolone was added in each tube, i.e., 1 μCi/reaction. 4. Microsome Isolation Buffer: The microsome isolation buffer was prepared by combining 250 mM Sucrose, 5 mM EDTA, 10 mM Tris HCl, 4 mM DTT, and adjusting to pH 7.4. 5. TEG Buffer: The TEG buffer was prepared by combining 50 mM Tris HCl, 1 mM EDTA, and 20% Glycerol. 6. Rat Testicular Microsomes: Rat testis tissue was collected and disrupted with 30 strokes of a glass homogenizer on ice with 250 μL of microsome isolation buffer, followed by centrifugation at 10,000 g for 10 minutes at 4° C. The supernatant was collected and centrifuged at 100,000 g for 45 minutes at 4° C. The pellet was dissolved in TEG Buffer and the protein was quantified. The homogenized microsome samples were then frozen at −80° C. • 7. Yeast Microsomes which overexpress the human CYP17 enzyme were obtained from Premas Biotech, India.
Potassium phosphate buffer (470 μL) was prepared as described above and was added to each well of a deep well plate. The test compound was diluted using a TECAN liquid handler and 5 μL of diluted compound was transferred to each well (96 deep well/1 mL). A solution (25 μL) of 6.5 mM NADPH was added (final concentration of 325 μM in the assay). ^3H3-17α-hydroxypregnenolone (2 μL of the working stock) was added to each tube. The plates were then pre-incubated for 15 minutes at 37° C. Following the pre-incubation, either 5 μL rat testicular microsomes (150-160 μg) or 5 μL of yeast microsomes expressing human CYP17 (1.7 pmol), was added. Incubation was at 37° C. for 60 minutes in the presence of oxygen. The plates were then placed in ice and chloroform (500 μL) was added, mixed well and incubated at 4° C. for 20 minutes. The plates were then centrifuged at 1000 rpm for 15 minutes at 4° C.
A portion (300 μL) of the aqueous solution was collected and mixed with a 5% aqueous suspension of activated charcoal (300 μL). The plates were then incubated at 4° C. for 30 minutes, after which the plates were centrifuged at 1000 rpm for 15 minutes at 4° C. From this, 125 μL of the aqueous solution was collected and plated into a 96 well plate. Microscint™ 40 [125 μL, Perkin-Elmer; containing a mixture of a polymer based on alkylphenolethoxylate (20-40%), diethanolamine-phosphoric acid ester ammonium salt (10-20%), sodium dioctyl sulphosuccinate (2.5-10%), triethyl phosphate (2.5-10%), 3,6-dimethyl-4-octyne-3,6-diol (≦2.5%), a polymer based on nonylphenolethoxylate (≦2.5%), diisopropyl naphthalene isomers (40-60%), 2,5-diphenyloxazole (≦2.5%), and 9,10-dimethylanthracene] was added and mixed well. After 30 minutes of incubation, the samples were analyzed with a MicroBeta® Trilux microplate liquid scintillation counter and luminometer (Perkin-Elmer).

[2] = biological target: T2, human CYP17 in H295R adrenocortical carcinoma cells (Homo sapiens, UniProt P05093); test: Cell-based human CYP17 inhibition assay, H295R cells; details: 16 hours, read-out: CYP17 (human H295R adrenal cells)
T2 construct: H295R Adrenocortical carcinoma cells [NCI-H295A, ATCC Number CRL-2128, American Type Culture Collection; host or cells: H295R adrenocortical carcinoma cells
T2 sequence (P05093 1-508): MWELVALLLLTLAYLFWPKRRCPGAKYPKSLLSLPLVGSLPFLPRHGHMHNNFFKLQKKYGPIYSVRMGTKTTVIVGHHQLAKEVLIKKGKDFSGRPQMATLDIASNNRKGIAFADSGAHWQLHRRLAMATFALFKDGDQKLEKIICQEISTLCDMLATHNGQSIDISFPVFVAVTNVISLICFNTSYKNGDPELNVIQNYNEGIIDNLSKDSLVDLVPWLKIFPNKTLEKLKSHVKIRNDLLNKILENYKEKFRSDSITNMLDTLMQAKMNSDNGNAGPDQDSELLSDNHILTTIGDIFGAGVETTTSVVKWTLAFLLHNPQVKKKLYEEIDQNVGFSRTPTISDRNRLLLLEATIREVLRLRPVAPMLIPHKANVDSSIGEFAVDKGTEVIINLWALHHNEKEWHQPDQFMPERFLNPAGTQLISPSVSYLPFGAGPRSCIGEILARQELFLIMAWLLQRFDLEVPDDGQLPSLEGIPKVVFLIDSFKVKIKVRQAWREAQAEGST
Description: Cell-Based Human CYP17 Inhibition Assay
1. H295R Adrenocortical Carcinoma Cells and Growth Media: The media for the H295R Adrenocortical carcinoma cells [NCI-H295A, ATCC Number CRL-2128, American Type Culture Collection, Manassas, Va., US] (500 mL) was a DMEM:F12 Mix 1:1 with 5% (2 mL) BD Nu Serum; 1% (5 mL) ITS+Premix [BD Biosciences] and 1% Penstrep. 2. LNCap-CYP17 Cells and Growth Media: Full length hCYP17a1 gene (NCBI Reference Sequence: NM_000102.3) was cloned in pcDNA3.1(+) vector between HindIII and XhoI site. The pcDNA3.1(+) vector contains the Neomycin resistance gene and was used for selection of stable cell line. The hCYP17a1 containing pcDNA3.1(+) was transfected into LNCap cells to create the LNCap-CYP17 cell line. The media for the LNCaP-CYP17 cells was RPMI 1640, 10% FBS, 1% PenStrep, Geneticin 400 μg/mL.
The H295R cells or LNCaP-hCYP17 cells were subcultured and 30,000 cells per well were seeded in a poly-d lysine plate and incubated overnight at 37° C. The next day the media was removed and 200 μL of fresh media with ^3H3-17α-hydroxy-pregnenolone (1:1000) was added. 50 μL of serially diluted compounds from a 5× plate (5 times the final desired concentration) was added. The working concentration range for active, new compounds started from a high concentration of 10 μM with 3-fold serial dilutions generating up to 10 concentrations. The serial dilution in the 100× plate (in DMSO) and the stamping of a 5× plate (in media) from the 100× plate were carried out using a TECAN liquid handling device.
The plates were incubated overnight (16 hours) at 37° C. After 16 hours, the media was removed (approximately 220 μL) and an equal amount of chloroform was added, mixed and incubated for 30 minutes at 4 degrees. The plate was centrifuged at 4000 rpm for 15 minutes at 4° C., following which the top aqueous layer was carefully removed and added into a new deep well plate. An equal volume of activated 5% charcoal was added, mixed and incubated for 30 minutes at 4° C. The plate was then centrifuged at 4000 rpm for 15 minutes at 4° C. and the top layer carefully separated, avoiding any charcoal contamination, and placed in a white, clear bottom plate (plate cat #3610, Corning Life Sciences). An equal volume of Microscint™ 40 was added and mixed well. Following the incubation for 30 minutes, readings for the radiotracer were taken using a Microbeta® trilux.

IC50 [1]	IC50 [2]	SMILES
< 0.05 µM	< 0.05 µM	CC(O)(c1ccncc1)c1cnc(-c2ccc(F)c(C#N)c2)s1 (stereo not shown) [Example 40, 2-fluoro-5-(5-(1-hydroxy-1-(pyridin-4-yl)ethyl)thiazol-2-yl)benzonitrile]
< 0.05 µM		CC(=O)OC(C)(c1ccncc1)c1cnc(-c2ccc(F)cc2)s1 (stereo not shown) [Example 65, 1-(2-(4-Fluorophenyl)thiazol-5-yl)-1-(pyridin-4-yl)ethyl acetate]
< 0.05 µM	0.05 to 0.2 µM	CC(O)(c1ccncc1)c1cnc(-c2ccc(C(F)(F)F)cc2)s1 (stereo not shown) [Example 26, 1-(Pyridin-4-yl)-1-(2-(4-(trifluoromethyl)phenyl)thiazol-5-yl)ethanol]
< 0.05 µM		CCCC(=O)OC(C)(c1ccncc1)c1cnc(-c2ccc(F)cc2)s1 (stereo not shown) [Example 67, 1-(2-(4-fluorophenyl)thiazol-5-yl)-1-(pyridin-4-yl)ethyl butyrate]
< 0.05 µM	0.05 to 0.2 µM	CC(O)(c1ccncc1)c1ncc(-c2ccc(F)cc2)s1 (single isomer, unassigned; (+)) [Example 55, (+)-1-(5-(4-fluorophenyl)thiazol-2-yl)-1-(pyridin-4-yl)ethanol]
< 0.05 µM		CCC(=O)OC(C)(c1ccncc1)c1cnc(-c2ccc(F)cc2)s1 (stereo not shown) [Example 66, 1-(2-(4-fluorophenyl)thiazol-5-yl)-1-(pyridin-4-yl)ethyl propionate]
< 0.05 µM	< 0.05 µM	CC(O)(c1ccncc1)c1cnc(-c2ccc(F)c(F)c2)s1 (stereo not shown) [Example 44, 1-(2-(3,4-difluorophenyl)thiazol-5-yl)-1-(pyridin-4-yl)ethanol]
0.05 to 0.2 µM	0.201 to 10 µM	CC(O)(c1ccncc1)c1nsc(-c2ccc(F)cc2)n1 (stereo not shown) [Example 53, 1-(5-(4-fluorophenyl)-1,2,4-thiadiazol-3-yl)-1-(pyridin-4-yl)ethanol]
< 0.05 µM	0.201 to 10 µM	OC1(c2cnc(-c3ccc(F)cc3)s2)CCCc2cnccc21 (stereo not shown) [Example 25, 5-(2-(4-fluorophenyl)thiazol-5-yl)-5,6,7,8-tetrahydroisoquinolin-5-ol]
< 0.05 µM	< 0.05 µM	CCC(O)(c1ccncc1)c1cnc(-c2cn[nH]c2)s1 (single isomer, unassigned; (-)) [Example 19, (−)-1-[2-(1H-pyrazol-4-yl)-1,3-thiazol-5-yl]-1-pyridin-4-ylpropan-1-ol]
< 0.05 µM	0.201 to 10 µM	CC(O)(c1ccncc1)c1cnc(-c2ccc(F)cc2)o1 (stereo not shown) [Example 23, 1-(2-(4-Fluorophenyl)oxazol-5-yl)-1-(pyridin-4-yl)ethanol]
< 0.05 µM	< 0.05 µM	CC(O)(c1ccncc1)c1nc(-c2ccc(F)cc2)ns1 (stereo not shown) [Example 52, 1-(3-(4-fluorophenyl)-1,2,4-thiadiazol-5-yl)-1-(pyridin-4-yl)ethanol]
< 0.05 µM	0.05 to 0.2 µM	CC(O)(c1ccncc1)c1cc(-c2ccc(F)cc2)no1 (stereo not shown) [Example 32, 1-[3-(4-Fluoro-phenyl)-isoxazol-5-yl]-1-pyridin-4-yl-ethanol]
0.05 to 0.2 µM	0.05 to 0.2 µM	CC(O)(c1ccncc1)c1ccc(-c2ccc(F)cc2)o1 (stereo not shown) [Example 37, 1-(5-(4-fluorophenyl)furan-2-yl)-1-(pyridin-4-yl)ethanol]
0.05 to 0.2 µM	0.201 to 10 µM	Cn1cc(-c2ccc(C(C)(O)c3ccncc3)o2)ccc1=O (stereo not shown) [Example 58, 5-(5-(1-hydroxy-1-(pyridin-4-yl)ethyl)furan-2-yl)-1-methylpyridin-2(1H)-one]
0.201 to 10 µM		CC(O)(c1ccncc1)c1cnc(-c2ccc(F)nc2)s1 (stereo not shown) [Example 22, 1-(2-(6-Fluoropyridin-3-yl)thiazol-5-yl)-1-(pyridin-4-yl)ethanol]
0.201 to 10 µM		CCC(O)(c1ccncc1)c1cnc(-c2cn[nH]c2)s1 (single isomer, unassigned; (+)) [Example 20, (+)-1-[2-(1H-pyrazol-4-yl)-1,3-thiazol-5-yl]-1-pyridin-4-ylpropan-1-ol]

SMILES	IC50 [1]	IC50 [2]
CC(O)(c1ccncc1)c1nc(-c2ccc(F)cc2)no1 (single isomer, unassigned; (-)) [Example 35, (−)-1-(3-(4-fluorophenyl)-1,2,4-oxadiazol-5-yl)-1-(pyridin-4-yl)ethanol]	< 0.05 µM	0.201 to 10 µM
